# Source: US20100298141A1, “SUBSTITUTED PYRIDINE N-OXIDE HERBICIDES” (E. I. DU PONT DE NEMOURS AND COMPANY, priority 2007, published 2010)
# How the values were obtained:
# wheat [1] = assay: Test C pre-/postemergence test; format: in vivo, Triticum aestivum
# In short: (§1)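 Test chemicals were formulated with surfactant in a non-phytotoxic solvent and sprayed both on freshly planted seeds (preemergence) and on 1- to 4-leaf plants of 2–18 cm (postemergence). Flooded-paddy pots received compound directly into 3 cm of standing water, maintained for the test.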
# redroot pigweed = assay: Test A pre-/postemergence greenhouse test; format: in vivo, Amaranthus retroflexus; conditions: for Plant response rating, Pigweed: 0 to 100 scale where 0 is no effect and 100 is complete control; for Pigweed plant response rating: 0 to 100 scale
# In short: (§2)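 Pre: directed soil spray on seeded loam/sand. Post: foliar spray, plants 2–10 cm, 1–2 leaf stage, applied concurrently. Vehicle: non-phytotoxic solvent + surfactant. Greenhouse ~10 d; visual injury rating vs untreated controls.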
# blackgrass = assay: Test C pre-/postemergence test; format: in vivo, Alopecurus myosuroides
# In short: as §1
# kochia = assay: Test C pre-/postemergence test; format: in vivo, Kochia scoparia
# In short: as §1
# cocklebur = assay: Test C pre-/postemergence test; format: in vivo, Xanthium strumarium
# In short: as §1
# giant foxtail [2] = assay: Test C pre-/postemergence test; format: in vivo, Setaria faberii
# In short: as §1
# velvetleaf = assay: Test C pre-/postemergence test; format: in vivo, Abutilon theophrasti
# In short: as §1
# lambsquarters = assay: Test C pre-/postemergence test; format: in vivo, Chenopodium album
# In short: as §1
# downy brome = assay: Test C pre-/postemergence test; format: in vivo, Bromus tectorum
# In short: as §1
# giant foxtail [3] = assay: Test A pre-/postemergence greenhouse test; format: in vivo, Setaria faberi; conditions: for Plant response rating, Foxtail, Giant: 0 to 100 scale where 0 is no effect and 100 is complete control; for Foxtail, Giant plant response rating: 0 to 100 scale
# In short: as §2
# eastern black nightshade = assay: Test C pre-/postemergence test; format: in vivo, Solanum ptycanthum
# In short: as §1
# common ragweed = assay: Test C pre-/postemergence test; format: in vivo, Ambrosia elation
# In short: as §1
# woolly cupgrass = assay: Test C pre-/postemergence test; format: in vivo, Eriochloa villosa
# In short: as §1
# Surinam grass = assay: Test C pre-/postemergence test; format: in vivo, Brachiaria decumbens
# In short: as §1
# wheat [4] = assay: Test A pre-/postemergence greenhouse test; format: in vivo, Triticum aestivum; conditions: for Plant response rating, Wheat: 0 to 100 scale where 0 is no effect and 100 is complete control; for Wheat plant response rating: 0 to 100 scale
# In short: as §2
# wild oat = assay: Test C pre-/postemergence test; format: in vivo, Avena fatua
# In short: as §1
# catchweed bedstraw = assay: Test C pre-/postemergence test; format: in vivo, Galium aparine
# In short: as §1
# [5] = test system: common (oilseed) sunflower; assay: Test C pre-/postemergence test; format: in vivo, Helianthus annuus
# In short: as §1
# morningglory = assay: Test A pre-/postemergence greenhouse test; format: in vivo, Ipomoea spp.; conditions: for Plant response rating, Morningglory: 0 to 100 scale where 0 is no effect and 100 is complete control; for Morningglory plant response rating: 0 to 100 scale
# In short: as §2
# [6] = 62 g ai/ha, Preemergence, scale 0 to 100
# [7] = 125 g ai/ha, preemergence, scale 0 (no effect) to 100 (complete control)
# [8] = Postemergence, 125 g ai/ha, scale 0 to 100, 0 no effect, 100 complete control
# [9] = Postemergence, 250 g ai/ha, scale 0 to 100, 0 no effect, 100 complete control
# [10] = Preemergence, 31 g ai/ha, scale 0 to 100 (0 no effect, 100 complete control)
# [11] = preemergence, 250 g ai/ha, scale 0 (no effect) to 100 (complete control)
# [12] = Postemergence, 500 g ai/ha, 0 is no effect, 100 is complete control
# [13] = Preemergence, 125 g ai/ha, 0 no effect, 100 complete control
# [14] = Postemergence, 62 g ai/ha, scale 0 to 100, 0 no effect, 100 complete control
smiles,measurement,setting,value
Cn1nc(C(F)(F)F)c(C[S+]([O-])c2ccc(F)c[n+]2[O-])c1OC(F)F (stereo not shown) [Compound 58],Wheat plant response rating,wheat [1]; [6],60
same,Wheat plant response rating,wheat [1]; [7],85
same,"Plant response rating (0 to 100), Wheat","wheat [1]; Postemergence, 31 g ai/ha",0
same,"Plant response rating (0 to 100), Wheat","wheat [1]; Postemergence, 62 g ai/ha",0
same,"Plant response rating, Wheat",wheat [1]; [8],20
same,"Plant response rating, Wheat",wheat [1]; [9],60
same,"Plant response rating, Wheat",wheat [1]; [10],10
same,Wheat plant response rating,wheat [1]; [11],90
same,"Plant response rating, Pigweed","redroot pigweed; Postemergence, 125 g ai/ha",70
same,Pigweed plant response rating,redroot pigweed; [12],90
same,Pigweed plant response rating,redroot pigweed; [13],80
same,"Plant response rating, Pigweed","redroot pigweed; Preemergence, 500 g ai/ha",100
same,Blackgrass plant response rating,blackgrass; [6],98
same,Blackgrass plant response rating,blackgrass; [7],100
same,"Plant response rating (0 to 100), Blackgrass","blackgrass; Postemergence, 31 g ai/ha",0
same,"Plant response rating, Blackgrass",blackgrass; [14],0
same,"Plant response rating, Blackgrass",blackgrass; [8],30
same,"Plant response rating, Blackgrass",blackgrass; [9],80
same,"Plant response rating, Blackgrass",blackgrass; [10],98
same,Blackgrass plant response rating,blackgrass; [11],100
same,Kochia plant response rating,kochia; [6],50
same,Kochia plant response rating,kochia; [7],100
same,"Plant response rating (0 to 100), Kochia","kochia; Postemergence, 31 g ai/ha",0
same,"Plant response rating, Kochia",kochia; [14],0
same,"Plant response rating, Kochia",kochia; [8],0
same,"Plant response rating, Kochia",kochia; [9],50
same,"Plant response rating, Kochia",kochia; [10],0
same,Kochia plant response rating,kochia; [11],100
same,Cocklebur plant response rating,cocklebur; [6],0
same,Cocklebur plant response rating,cocklebur; [7],0
same,"Plant response rating (0 to 100), Cocklebur","cocklebur; Postemergence, 31 g ai/ha",0
same,"Plant response rating, Cocklebur",cocklebur; [14],0
same,"Plant response rating, Cocklebur",cocklebur; [8],0
same,"Plant response rating, Cocklebur",cocklebur; [9],0
same,"Plant response rating, Cocklebur",cocklebur; [10],0
same,Cocklebur plant response rating,cocklebur; [11],40
same,"Foxtail, Giant plant response rating",giant foxtail [2]; [6],100
same,"Foxtail, Giant plant response rating",giant foxtail [2]; [7],100
same,"Plant response rating (0 to 100), Foxtail, Giant","giant foxtail [2]; Postemergence, 31 g ai/ha",0
same,"Plant response rating, Foxtail, Giant",giant foxtail [2]; [14],10
same,"Plant response rating, Foxtail, Giant",giant foxtail [2]; [8],40
same,"Plant response rating, Foxtail, Giant",giant foxtail [2]; [9],60
same,"Plant response rating, Foxtail, Giant",giant foxtail [2]; [10],40
same,"Foxtail, Giant plant response rating",giant foxtail [2]; [11],100
same,Velvetleaf plant response rating,velvetleaf; [6],75
same,Velvetleaf plant response rating,velvetleaf; [7],100
same,"Plant response rating (0 to 100), Velvetleaf","velvetleaf; Postemergence, 31 g ai/ha",0
same,"Plant response rating (0 to 100), Velvetleaf","velvetleaf; Postemergence, 62 g ai/ha",0
same,"Plant response rating, Velvetleaf",velvetleaf; [8],5
same,"Plant response rating, Velvetleaf",velvetleaf; [9],5
same,"Plant response rating, Velvetleaf",velvetleaf; [10],5
same,Velvetleaf plant response rating,velvetleaf; [11],100
same,Lambsquarters plant response rating,lambsquarters; [6],100
same,Lambsquarters plant response rating,lambsquarters; [7],100
same,"Plant response rating (0 to 100), Lambsquarters","lambsquarters; Postemergence, 31 g ai/ha",0
same,"Plant response rating, Lambsquarters",lambsquarters; [14],0
same,"Plant response rating, Lambsquarters",lambsquarters; [8],0
same,"Plant response rating, Lambsquarters",lambsquarters; [9],30
same,"Plant response rating, Lambsquarters",lambsquarters; [10],70
same,Lambsquarters plant response rating,lambsquarters; [11],100
same,"Bromegrass, Downy plant response rating",downy brome; [6],60
same,"Bromegrass, Downy plant response rating",downy brome; [7],100
same,"Plant response rating (0 to 100), Bromegrass, Downy","downy brome; Postemergence, 31 g ai/ha",0
same,"Plant response rating, Bromegrass, Downy",downy brome; [14],0
same,"Plant response rating, Bromegrass, Downy",downy brome; [8],0
same,"Plant response rating, Bromegrass, Downy",downy brome; [9],60
same,"Plant response rating, Bromegrass, Downy",downy brome; [10],0
same,"Bromegrass, Downy plant response rating",downy brome; [11],100
same,"Plant response rating, Foxtail, Giant","giant foxtail [3]; Postemergence, 125 g ai/ha",90
same,"Foxtail, Giant plant response rating",giant foxtail [3]; [12],90
same,"Foxtail, Giant plant response rating",giant foxtail [3]; [13],100
same,"Plant response rating, Foxtail, Giant","giant foxtail [3]; Preemergence, 500 g ai/ha",100
same,Nightshade plant response rating,eastern black nightshade; [6],100
same,Nightshade plant response rating,eastern black nightshade; [7],100
same,"Plant response rating, Nightshade",eastern black nightshade; [10],100
same,Nightshade plant response rating,eastern black nightshade; [11],100
same,Ragweed plant response rating,common ragweed; [6],30
same,Ragweed plant response rating,common ragweed; [7],55
same,"Plant response rating (0 to 100), Ragweed","common ragweed; Postemergence, 31 g ai/ha",0
same,"Plant response rating (0 to 100), Ragweed","common ragweed; Postemergence, 62 g ai/ha",0
same,"Plant response rating, Ragweed",common ragweed; [8],0
same,"Plant response rating, Ragweed",common ragweed; [9],30
same,"Plant response rating, Ragweed",common ragweed; [10],30
same,Ragweed plant response rating,common ragweed; [11],100
same,"Cupgrass, Woolly plant response rating",woolly cupgrass; [6],60
same,"Cupgrass, Woolly plant response rating",woolly cupgrass; [7],95
same,"Plant response rating (0 to 100), Cupgrass, Woolly","woolly cupgrass; Postemergence, 31 g ai/ha",0
same,"Plant response rating, Cupgrass, Woolly",woolly cupgrass; [14],0
same,"Plant response rating, Cupgrass, Woolly",woolly cupgrass; [8],10
same,"Plant response rating, Cupgrass, Woolly",woolly cupgrass; [9],80
same,"Plant response rating, Cupgrass, Woolly",woolly cupgrass; [10],10
same,"Cupgrass, Woolly plant response rating",woolly cupgrass; [11],100
same,Surinam Grass plant response rating,Surinam grass; [6],80
same,Surinam Grass plant response rating,Surinam grass; [7],85
same,"Plant response rating (0 to 100), Surinam Grass","Surinam grass; Postemergence, 31 g ai/ha",0
same,"Plant response rating (0 to 100), Surinam Grass","Surinam grass; Postemergence, 62 g ai/ha",0
same,"Plant response rating, Surinam Grass",Surinam grass; [8],10
same,"Plant response rating, Surinam Grass",Surinam grass; [9],45
same,"Plant response rating, Surinam Grass",Surinam grass; [10],70
same,Surinam Grass plant response rating,Surinam grass; [11],100
same,"Plant response rating, Wheat","wheat [4]; Postemergence, 125 g ai/ha",60
same,Wheat plant response rating,wheat [4]; [12],70
same,Wheat plant response rating,wheat [4]; [13],60
same,"Plant response rating, Wheat","wheat [4]; Preemergence, 500 g ai/ha",100
same,"Oat, Wild plant response rating",wild oat; [6],45
same,"Oat, Wild plant response rating",wild oat; [7],80
same,"Plant response rating (0 to 100), Oat, Wild","wild oat; Postemergence, 31 g ai/ha",0
same,"Plant response rating, Oat, Wild",wild oat; [14],0
same,"Plant response rating, Oat, Wild",wild oat; [8],0
same,"Plant response rating, Oat, Wild",wild oat; [9],5
same,"Plant response rating, Oat, Wild",wild oat; [10],20
same,"Oat, Wild plant response rating",wild oat; [11],80
same,Galium plant response rating,catchweed bedstraw; [6],70
same,Galium plant response rating,catchweed bedstraw; [7],100
same,"Plant response rating, Galium",catchweed bedstraw; [10],0
same,Galium plant response rating,catchweed bedstraw; [11],100
same,Sunflower plant response rating,[5]; [6],35
same,Sunflower plant response rating,[5]; [7],35
same,"Plant response rating, Sunflower",[5]; [10],10
same,Sunflower plant response rating,[5]; [11],85
same,"Plant response rating, Morningglory","morningglory; Postemergence, 125 g ai/ha",70
same,Morningglory plant response rating,morningglory; [12],90
same,Morningglory plant response rating,morningglory; [13],60
same,"Plant response rating, Morningglory","morningglory; Preemergence, 500 g ai/ha",100
